{"source": "ChEMBL document CHEMBL4033658", "about": "“Design and expeditious synthesis of organosilanes as potent antivirals targeting multidrug-resistant influenza A viruses” (Eur J Med Chem, 2017)", "data": [{"tested_on": "Influenza A virus", "test": "Inhibition of Influenza A virus AM2-S31N mutant proton channel expressed in Xenopus laevis frog oocytes at 100 uM after 2 mins by electrophysiological two-electrode voltage clamp assay", "format": "cell-based", "units": {"inhibition": "%"}, "values": [{"smiles": "CC(C)(C)c1ccc(CNC23CC4CC(CC(O)(C4)C2)C3)cc1", "inhibition": 75.4}, {"smiles": "C[Si](C)(C)c1ccc(CNC23CC4CC(CC(O)(C4)C2)C3)cc1", "inhibition": 86.7}, {"smiles": "C[Si](C)(C)c1ccc(CNC23CC4CC(CC(C4)C2)C3)cc1", "inhibition": 77.5}, {"smiles": "CC(C)(C)c1ccc(CNC23CC4CC(CC(C4)C2)C3)cc1", "inhibition": 72.6}, {"smiles": "C[Si](C)(c1ccccc1)c1ccc(CNC23CC4CC(CC(O)(C4)C2)C3)cc1", "inhibition": 84.9}, {"smiles": "CC(C)[Si](c1ccc(CNC23CC4CC(CC(O)(C4)C2)C3)cc1)(C(C)C)C(C)C", "inhibition": 33.6}, {"smiles": "C[Si](C)(C)c1ccc(CNC23CC4CC(CC(C4)C2)C3)nc1", "inhibition": 81.3}]}]}
